Measured values reported in patent publication US6440971B1, “Binuclear complex” (A+ Science Invest AB, priority 1997, dated 2002).

How the values were obtained:
LAMA = assay: growth inhibition of tumour cell lines; settings: read-out: half maximum growth inhibitory concentration (IC50), Δ,Δ-enantiomers of (I)-(IV), Δ-enantiomer of (V)
SUDHL 1 = assay: growth inhibition of tumour cell lines; settings: read-out: half maximum growth inhibitory concentration (IC50), Δ,Δ-enantiomers of (I)-(IV), Δ-enantiomer of (V)
Lung carcinoma HBT182 = assay: growth inhibition of tumour cell lines; settings: read-out: half maximum growth inhibitory concentration (IC50), Δ,Δ-enantiomers of (I)-(IV), Δ-enantiomer of (V)
DNA = assay: linear dichroism of complex bound to DNA; type: binding; settings: 10 mM and 200 mM aqueous NaCl, [Ru]=5 μM, P/Ru=30; negative signals at 380 and 470 nm
Description: The properties of the Δ,Δ enantiomer of (I) regarding DNA binding was then studied.
The amplitude of the negative signals 380 and 470 nm indicate bis-intercalation of the complex (Lincoln, P. et al. JACS 118 (1996) 2644).

calf thymus DNA = assay: sodium dodecylsulphate-driven dissociation of the DNA complex; type: binding; settings: [NaCl]=159 mM
Description: While the association reaction is relatively insensitive to the ionic strength of the solution, the dissociation is much faster at physiological salt concentrations, however, the rate constant is still only 0.008 S^−1 at [NaCl]=159 mM.

IC50 (LAMA) [µM]	IC50 (SUDHL 1) [µM]	IC50 (Lung carcinoma HBT182) [µM]	DNA binding mode (DNA)	Compound	dissociation rate constant (calf thymus DNA) [S^−1]
43	39	38	–	[Cl-].[Cl-].[Ru+2].c1ccc2nc3c4cccnc4c4ncccc4c3nc2c1.c1cnc2c(c1)ccc1cccnc12.c1cnc2c(c1)ccc1cccnc12 [(V), reference compound]	–
8	14	9	bis-intercalation	μ-[N,N′-bis(12-cyano-12,13-dihydro-11H-cyclopentadipyrido[b:3,2-h:2′,3′-j]phenazine-12-carbonyl)-1,4-diaminobutane-N^4,N^5,N′^4,N′^5]-tetra (1,10-phenanthroline N^1,N^10) diruthenium(4+) -tetra-chloride [(I)]	0.008
12	14	19	–	μ-[N,N′-bis(12-cyano-12,3-dihydro-11H-cyclopentadipyrido[b:3,2-h:2′,3′-j]phenazine-12-carbonyl)-1,2-diaminoethane N^4,N^5,N^4′,N^5′]-tetra(1,10-phenanthroline N^1,N^10)-diruthenium(4+)-tetrachloride [(III)]	–

Compound	IC50 (LAMA) [µM]	IC50 (SUDHL 1) [µM]	IC50 (Lung carcinoma HBT182) [µM]	DNA binding mode (DNA)	dissociation rate constant (calf thymus DNA) [S^−1]
μ-[N,N′-bi (12-cyano-12,13-dihydro-11H-cyclopentadipyrido[b:3,2-h:7′,3′-j]phenazine-12-carbonyl)-1,2-diaminoethane N^4,N^5,N^4′,N^5′]-tetra(2,2′-bipyridine N^1,N^1′)-diruthenium(4+)-tetrachloride [(IV)]	16	22	10	–	–
Δ,Δμ-[N,N′-bis(12-cyano-12,13-dihydro-11H-cyclopentadipyrido[b:3,2-h:2′,3′-j]phenazine-12-carbonyl)-1,4-diaminobutane N^4N^5,N^4,N^5′]-tetra(2,2′-bipyridine N^1,N^1′)diruthenium(4+)-tetrachloride [(II)]	9	12	8	–	–
